Measurements: patent US20040054244A1, “Process of quadricyclane production” (Exciton, Inc., priority 2000, published 2004)

Test: Solubility of sensitizer in norbornadiene
Details: at room temperature

| SMILES | solubility in norbornadiene |
| --- | --- |
| CCN(CC)c1ccc(C(=O)c2ccc(N(CC)CC)cc2)cc1 [EMK, 4,4′-bis (diethylamino) benzophenone] | at least 3.86 % by weight |
| CN(C)c1ccc(C(=O)c2ccc(N(C)C)cc2)cc1 [MK, 4,4′-bis (dimethylamino)-benzophenone] | ≤ 0.32 % by weight |
